Columns and labels:
Trichosporon asahii [1] = assay: Antifungal activity against Trichosporon asahii 1188 after 24 hrs by broth microdilution method; format: functional; settings: Trichosporon asahii, 1188, 24 h
Nakaseomyces glabratus [2] = assay: Antifungal activity against Candida glabrata 20/I after 48 hrs by broth microdilution method; format: functional
Pichia kudriavzevii [3] = assay: Antifungal activity against Candida krusei E28 after 24 hrs by broth microdilution method; format: functional; settings: E28, 24 h
Nakaseomyces glabratus [4] = assay: Antifungal activity against Candida glabrata 20/I after 24 hrs by broth microdilution method; format: functional
Staphylococcus aureus [5] = assay: Antibacterial activity against methicillin-resistant Staphylococcus aureus H 5996/08 after 24 hrs by broth microdilution method; format: functional; settings: H 5996/08, 24 h
Candida tropicalis [6] = assay: Antifungal activity against Candida tropicalis 156 after 48 hrs by broth microdilution method; format: functional; settings: Candida tropicalis, 156, 48 h
Mycobacterium kansasii [7] = assay: Antimycobacterial activity against Mycobacterium kansasii 6509/96 after 21 days by micromethod; format: functional; settings: 6509/96, 504 h
Mycobacterium kansasii [8] = assay: Antimycobacterial activity against Mycobacterium kansasii CNCTC My 235/80 after 14 days by micromethod; format: functional; settings: CNCTC My 235/80, 336 h
Lichtheimia corymbifera [9] = assay: Antifungal activity against Absidia corymbifera 272 after 48 hrs by broth microdilution method; format: functional, organism-based; settings: Lichtheimia corymbifera, 272, 48 h
HeLa = assay: Cytotoxicity against human HeLa cells assessed as reduction in cell viability after 48 hrs by MTT assay; format: cell-based
[10] = system: Staphylococcus epidermidis; assay: Antibacterial activity against Staphylococcus epidermidis H 6966/08 after 24 hrs by broth microdilution method; format: functional; settings: H 6966/08, 24 h
Klebsiella pneumoniae [11] = assay: Antibacterial activity against Klebsiella pneumoniae D 11750/08 after 48 hrs by broth microdilution method; format: functional; settings: D 11750/08, 48 h
[12] = system: Mycobacterium tuberculosis; assay: Antimycobacterial activity against Mycobacterium tuberculosis CNCTC My 331/88 after 21 days by micromethod; format: functional; settings: CNCTC My 331/88, 504 h
[13] = system: Trichophyton mentagrophytes; assay: Antifungal activity against Trichophyton mentagrophytes 445 after 120 hrs by broth microdilution method; format: functional, organism-based; settings: Trichophyton mentagrophytes, 445, 120 h
Enterococcus faecalis [14] = assay: Antibacterial activity against Enterococcus faecalis J 14365/08 after 24 hrs by broth microdilution method; format: functional; settings: J 14365/08, 24 h
[15] = system: Mycobacterium tuberculosis; assay: Antimycobacterial activity against Mycobacterium tuberculosis CNCTC My 331/88 after 14 days by micromethod; format: functional; settings: CNCTC My 331/88, 336 h
Mycobacterium kansasii [16] = assay: Antimycobacterial activity against Mycobacterium kansasii CNCTC My 235/80 after 21 days by micromethod; format: functional; settings: CNCTC My 235/80, 504 h
Mycobacterium kansasii [17] = assay: Antimycobacterial activity against Mycobacterium kansasii 6509/96 after 7 days by micromethod; format: functional; settings: 6509/96, 168 h
Mycobacterium kansasii [18] = assay: Antimycobacterial activity against Mycobacterium kansasii CNCTC My 235/80 after 7 days by micromethod; format: functional; settings: CNCTC My 235/80, 168 h
Pseudomonas aeruginosa [19] = assay: Antibacterial activity against Pseudomonas aeruginosa ATCC 9027 after 24 hrs by broth microdilution method; format: functional; settings: ATCC 9027, 24 h
Trichosporon asahii [20] = assay: Antifungal activity against Trichosporon asahii 1188 after 48 hrs by broth microdilution method; format: functional; settings: Trichosporon asahii, 1188, 48 h
[21] = Cytotoxicity against human HeLa cells assessed as cell viability at 30 uM after 48 hrs by MTT assay; format: cell-based; settings: read-out: Activity
Staphylococcus aureus [22] = assay: Antibacterial activity against methicillin-resistant Staphylococcus aureus H 5996/08 after 48 hrs by broth microdilution method; format: functional; settings: H 5996/08, 48 h
Pichia kudriavzevii [23] = assay: Antifungal activity against Candida krusei E28 after 48 hrs by broth microdilution method; format: functional; settings: E28, 48 h
Lichtheimia corymbifera [24] = assay: Antifungal activity against Absidia corymbifera 272 after 24 hrs by broth microdilution method; format: functional, organism-based; settings: Lichtheimia corymbifera, 272, 24 h
[25] = system: Staphylococcus epidermidis; assay: Antibacterial activity against Staphylococcus epidermidis H 6966/08 after 48 hrs by broth microdilution method; format: functional; settings: H 6966/08, 48 h
Mycobacterium avium [26] = assay: Antimycobacterial activity against Mycobacterium avium CNCTC My 330/88 after 21 days by micromethod; format: functional; settings: CNCTC My 330/88, 504 h
[27] = Cytotoxicity against human HepG2 cells assessed as cell viability at 30 uM after 48 hrs by MTT assay; format: cell-based; settings: read-out: Activity
Klebsiella pneumoniae [28] = assay: Antibacterial activity against extended spectrum beta-lactamase producing Klebsiella pneumoniae J 14368/08 after 24 hrs by broth microdilution method; format: functional; settings: J 14368/08, 24 h
Escherichia coli [29] = assay: Antibacterial activity against Escherichia coli ATCC 8739 after 24 hrs by broth microdilution method; format: functional; settings: ATCC 8739, ATCC 8739, 24 h
[30] = Cytotoxicity against human HuH7 cells assessed as cell viability at 30 uM after 48 hrs by MTT assay; format: cell-based, Huh-7; settings: read-out: Activity
Escherichia coli [31] = assay: Antibacterial activity against Escherichia coli ATCC 8739 after 48 hrs by broth microdilution method; format: functional; settings: ATCC 8739, ATCC 8739, 48 h
Aspergillus fumigatus [32] = assay: Antifungal activity against Aspergillus fumigatus 231 after 48 hrs by broth microdilution method; format: functional, organism-based; settings: Aspergillus fumigatus, 231, 48 h
[33] = Cytotoxicity against MDCK2 cells assessed as reduction in cell viability after 48 hrs by MTT assay; format: cell-based; settings: Canis lupus familiaris, MDCK-II
Enterococcus faecalis [34] = assay: Antibacterial activity against Enterococcus faecalis J 14365/08 after 48 hrs by broth microdilution method; format: functional; settings: J 14365/08, 48 h
Pseudomonas aeruginosa [35] = assay: Antibacterial activity against Pseudomonas aeruginosa ATCC 9027 after 48 hrs by broth microdilution method; format: functional; settings: ATCC 9027, 48 h
Staphylococcus aureus [36] = assay: Antibacterial activity against Staphylococcus aureus ATCC 6538 after 24 hrs by broth microdilution method; format: functional; settings: ATCC 6538, 24 h
Aspergillus fumigatus [37] = assay: Antifungal activity against Aspergillus fumigatus 231 after 24 hrs by broth microdilution method; format: functional, organism-based; settings: Aspergillus fumigatus, 231, 24 h
Candida albicans [38] = assay: Antifungal activity against Candida albicans ATCC 44859 after 24 hrs by broth microdilution method; format: functional; settings: ATCC 44859, 24 h
Staphylococcus aureus [39] = assay: Antibacterial activity against Staphylococcus aureus ATCC 6538 after 48 hrs by broth microdilution method; format: functional; settings: ATCC 6538, 48 h
Klebsiella pneumoniae [40] = assay: Antibacterial activity against extended spectrum beta-lactamase producing Klebsiella pneumoniae J 14368/08 after 48 hrs by broth microdilution method; format: functional; settings: J 14368/08, 48 h
Mycobacterium avium [41] = assay: Antimycobacterial activity against Mycobacterium avium CNCTC My 330/88 after 14 days by micromethod; format: functional; settings: CNCTC My 330/88, 336 h
HepG2 = assay: Cytotoxicity against human HepG2 cells assessed as reduction in cell viability after 48 hrs by MTT assay; format: cell-based; settings: HepG2, 48 h
Candida tropicalis [42] = assay: Antifungal activity against Candida tropicalis 156 after 24 hrs by broth microdilution method; format: functional; settings: Candida tropicalis, 156, 24 h
Klebsiella pneumoniae [43] = assay: Antibacterial activity against Klebsiella pneumoniae D 11750/08 after 24 hrs by broth microdilution method; format: functional; settings: D 11750/08, 24 h
Candida albicans [44] = assay: Antifungal activity against Candida albicans ATCC 44859 after 48 hrs by broth microdilution method; format: functional; settings: ATCC 44859, 48 h
[45] = system: Trichophyton mentagrophytes; assay: Antifungal activity against Trichophyton mentagrophytes 445 after 72 hrs by broth microdilution method; format: functional, organism-based; settings: Trichophyton mentagrophytes, 445, 72 h
[46] = Cytotoxicity against MDCK2 cells assessed as cell viability at 30 uM after 48 hrs by MTT assay; format: cell-based, Canis lupus familiaris, MDCK-II; settings: dog, read-out: Activity
[47] = Cytotoxicity against human HuH7 cells assessed as reduction in cell viability after 48 hrs by MTT assay; format: cell-based; settings: Huh-7, 48 h
Mycobacterium kansasii [48] = assay: Antimycobacterial activity against Mycobacterium kansasii 6509/96 after 14 days by micromethod; format: functional; settings: 6509/96, 336 h

O=[N+]([O-])c1cc(C[Se]c2nnnn2Cc2ccccc2)cc([N+](=O)[O-])c1
32 µM: MIC (Mycobacterium avium [26]) | MIC (Mycobacterium avium [41])
41%: viability at 48 h, 30 µM [46]
1 µM: MIC [15]
70%: viability at 48 h, 30 µM [30]
54%: viability at 48 h, 30 µM [21]
> 500 µM: IC80 (Trichosporon asahii [1]) | IC80 (Nakaseomyces glabratus [2]) | IC80 (Pichia kudriavzevii [3]) | IC80 (Nakaseomyces glabratus [4]) | IC95 (Staphylococcus aureus [5]) | IC80 (Candida tropicalis [6]) | IC50 (Lichtheimia corymbifera [9]) | IC95 [10] | IC95 (Klebsiella pneumoniae [11]) | IC50 [13] | IC95 (Enterococcus faecalis [14]) | IC95 (Pseudomonas aeruginosa [19]) | IC80 (Trichosporon asahii [20]) | IC95 (Staphylococcus aureus [22]) | IC80 (Pichia kudriavzevii [23]) | IC50 (Lichtheimia corymbifera [24]) | IC95 [25] | IC95 (Klebsiella pneumoniae [28]) | IC95 (Escherichia coli [29]) | IC95 (Escherichia coli [31]) | IC50 (Aspergillus fumigatus [32]) | IC95 (Enterococcus faecalis [34]) | IC95 (Pseudomonas aeruginosa [35]) | IC95 (Staphylococcus aureus [36]) | IC50 (Aspergillus fumigatus [37]) | IC80 (Candida albicans [38]) | IC95 (Staphylococcus aureus [39]) | IC95 (Klebsiella pneumoniae [40]) | IC80 (Candida tropicalis [42]) | IC95 (Klebsiella pneumoniae [43]) | IC80 (Candida albicans [44]) | IC50 [45]
33%: viability at 48 h, 30 µM [27]
4 µM: MIC (Mycobacterium kansasii [8]) | MIC (Mycobacterium kansasii [16]) | MIC (Mycobacterium kansasii [17])
8 µM: MIC (Mycobacterium kansasii [7]) | MIC (Mycobacterium kansasii [48])
> 30 µM: IC50 (HeLa) | IC50 [47]
16.5 µM: IC50 (HepG2)
2 µM: MIC [12] | MIC (Mycobacterium kansasii [18])
22 µM: IC50 [33]

O=[N+]([O-])c1cc(CSc2nnnn2-c2ccc(Cl)c(Cl)c2)cc([N+](=O)[O-])c1
> 30 µM: IC50 (HeLa) | IC50 [33] | IC50 [47]
90%: viability at 48 h, 30 µM [30]
8 µM: MIC (Mycobacterium avium [41])
67%: viability at 48 h, 30 µM [21]
53%: viability at 48 h, 30 µM [46]
> 125 µM: IC80 (Trichosporon asahii [1]) | IC80 (Nakaseomyces glabratus [2]) | IC80 (Pichia kudriavzevii [3]) | IC80 (Nakaseomyces glabratus [4]) | IC95 (Staphylococcus aureus [5]) | IC80 (Candida tropicalis [6]) | IC50 (Lichtheimia corymbifera [9]) | IC95 [10] | IC95 (Klebsiella pneumoniae [11]) | IC50 [13] | IC95 (Enterococcus faecalis [14]) | IC95 (Pseudomonas aeruginosa [19]) | IC80 (Trichosporon asahii [20]) | IC95 (Staphylococcus aureus [22]) | IC80 (Pichia kudriavzevii [23]) | IC50 (Lichtheimia corymbifera [24]) | IC95 [25] | IC95 (Klebsiella pneumoniae [28]) | IC95 (Escherichia coli [29]) | IC95 (Escherichia coli [31]) | IC50 (Aspergillus fumigatus [32]) | IC95 (Enterococcus faecalis [34]) | IC95 (Pseudomonas aeruginosa [35]) | IC95 (Staphylococcus aureus [36]) | IC50 (Aspergillus fumigatus [37]) | IC80 (Candida albicans [38]) | IC95 (Staphylococcus aureus [39]) | IC95 (Klebsiella pneumoniae [40]) | IC80 (Candida tropicalis [42]) | IC95 (Klebsiella pneumoniae [43]) | IC80 (Candida albicans [44]) | IC50 [45]
2 µM: MIC (Mycobacterium kansasii [16]) | MIC (Mycobacterium kansasii [48])
26 µM: IC50 (HepG2)
42%: viability at 48 h, 30 µM [27]
4 µM: MIC (Mycobacterium kansasii [7])
1 µM: MIC (Mycobacterium kansasii [8]) | MIC [12] | MIC [15] | MIC (Mycobacterium kansasii [17]) | MIC (Mycobacterium kansasii [18])
16 µM: MIC (Mycobacterium avium [26])

Reference: ChEMBL document CHEMBL3297661, “1-Substituted-5-[(3,5-dinitrobenzyl)sulfanyl]-1H-tetrazoles and their isosteric analogs: A new class of selective antitubercular agents active against drug-susceptible and multidrug-resistant mycobacteria” (Eur J Med Chem, 2014)
